Source: PubChem BioAssay AID1845205 (Molecular Pharmacology Branch, DTP, NCI, 2023)
pIC50: −log10 of the molar value.

Tested on: MPNST multicellular tumor spheroids, viability % test/control
Test: Anticancer human tumor MPNST cell line growth inhibition;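 note: spheroids exposed to agents for seven days after three days of growth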;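 for viability, T/C: luminescence signal used as surrogate for viable cell amount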
Details: for pIC50: curve of first compound; for viability, T/C: stronger effect = lower value
How it was run: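 Complex spheroids of malignant cells with endothelial cells and mesenchymal stem cells; agents alone or combined, from near clinical Cmax (or 10 microM if unknown) down in half-log steps, 0.25% DMSO final.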

O=C(c1cc(Cc2n[nH]c(=O)c3ccccc23)ccc1F)N1CCN(C(=O)C2CC2)CC1 + CC[C@@]1(O)C(=O)OCc2c1cc1n(c2=O)Cc2cc3c(CN(C)C)c(O)ccc3nc2-1
pIC50 (second compound 0.003 µM): < 4.52 | pIC50 (second compound 0.00949 µM): < 4.52 | pIC50 (second compound 0.03 µM): < 4.52 | pIC50 (second compound 0.0949 µM): < 4.52 | pIC50 (second compound 0.3 µM): > 7.02 | viability, T/C (second compound 0.003 µM, first compound 0.0949 µM): 87.4% | viability, T/C (second compound 0.003 µM, first compound 0.3 µM): 78% | viability, T/C (second compound 0.003 µM, first compound 0.949 µM): 72.9% | viability, T/C (second compound 0.003 µM, first compound 3 µM): 68% | viability, T/C (second compound 0.003 µM, first compound 9.49 µM): 69.5% | viability, T/C (second compound 0.003 µM, first compound 30 µM): 58.2% | viability, T/C (second compound 0.00949 µM, first compound 0.0949 µM): 81.5% | viability, T/C (second compound 0.00949 µM, first compound 0.3 µM): 73.7% | viability, T/C (second compound 0.00949 µM, first compound 0.949 µM): 62.2% | viability, T/C (second compound 0.00949 µM, first compound 3 µM): 59.3% | viability, T/C (second compound 0.00949 µM, first compound 9.49 µM): 59.9% | viability, T/C (second compound 0.00949 µM, first compound 30 µM): 59% | viability, T/C (second compound 0.03 µM, first compound 0.0949 µM): 53.5% | viability, T/C (second compound 0.03 µM, first compound 0.3 µM): 59.2% | viability, T/C (second compound 0.03 µM, first compound 0.949 µM): 57% | viability, T/C (second compound 0.03 µM, first compound 3 µM): 58.4% | viability, T/C (second compound 0.03 µM, first compound 9.49 µM): 60.9% | viability, T/C (second compound 0.03 µM, first compound 30 µM): 55.3% | viability, T/C (second compound 0.0949 µM, first compound 0.0949 µM): 57.5% | viability, T/C (second compound 0.0949 µM, first compound 0.3 µM): 53.1% | viability, T/C (second compound 0.0949 µM, first compound 0.949 µM): 58.5% | viability, T/C (second compound 0.0949 µM, first compound 3 µM): 54.9% | viability, T/C (second compound 0.0949 µM, first compound 9.49 µM): 54.6% | viability, T/C (second compound 0.0949 µM, first compound 30 µM): 55% | viability, T/C (second compound 0.3 µM, first compound 0.0949 µM): 49.3% | viability, T/C (second compound 0.3 µM, first compound 0.3 µM): 50.7% | viability, T/C (second compound 0.3 µM, first compound 0.949 µM): 50.5% | viability, T/C (second compound 0.3 µM, first compound 3 µM): 46.3% | viability, T/C (second compound 0.3 µM, first compound 9.49 µM): 47.8% | viability, T/C (second compound 0.3 µM, first compound 30 µM): 38.6%

COc1cc(C)[nH]c(=O)c1CN1CCc2c(Cl)cc(C(OC)C3COC3)c(Cl)c2C1=O (stereo not given) + COc1cc2c(cc1O)CCNC21CSC2c3c(OC(C)=O)c(C)c4c(c3C(COC1=O)N1C(O)C3Cc5cc(C)c(OC)c(O)c5C(C21)N3C)OCO4
pIC50 (second compound 30 pM): < 5.00 | pIC50 (second compound 94.9 pM): < 5.00 | pIC50 (second compound 0.0003 µM): < 5.00 | pIC50 (second compound 0.000949 µM): > 7.50 | pIC50 (second compound 0.003 µM): > 7.50 | viability, T/C (second compound 30 pM, first compound 0.0316 µM): 73.7% | viability, T/C (second compound 30 pM, first compound 0.1 µM): 77.4% | viability, T/C (second compound 30 pM, first compound 0.316 µM): 74.5% | viability, T/C (second compound 30 pM, first compound 1 µM): 84.8% | viability, T/C (second compound 30 pM, first compound 3.16 µM): 81% | viability, T/C (second compound 30 pM, first compound 10 µM): 90.3% | viability, T/C (second compound 94.9 pM, first compound 0.0316 µM): 94.7% | viability, T/C (second compound 94.9 pM, first compound 0.1 µM): 78.4% | viability, T/C (second compound 94.9 pM, first compound 0.316 µM): 86.4% | viability, T/C (second compound 94.9 pM, first compound 1 µM): 77.5% | viability, T/C (second compound 94.9 pM, first compound 3.16 µM): 83.2% | viability, T/C (second compound 94.9 pM, first compound 10 µM): 69.9% | viability, T/C (second compound 0.0003 µM, first compound 0.0316 µM): 79% | viability, T/C (second compound 0.0003 µM, first compound 0.1 µM): 68.8% | viability, T/C (second compound 0.0003 µM, first compound 0.316 µM): 91.7% | viability, T/C (second compound 0.0003 µM, first compound 1 µM): 82.5% | viability, T/C (second compound 0.0003 µM, first compound 3.16 µM): 69.8% | viability, T/C (second compound 0.0003 µM, first compound 10 µM): 60.6% | viability, T/C (second compound 0.000949 µM, first compound 0.0316 µM): 47.6% | viability, T/C (second compound 0.000949 µM, first compound 0.1 µM): 46% | viability, T/C (second compound 0.000949 µM, first compound 0.316 µM): 45.3% | viability, T/C (second compound 0.000949 µM, first compound 1 µM): 42.8% | viability, T/C (second compound 0.000949 µM, first compound 3.16 µM): 42.6% | viability, T/C (second compound 0.000949 µM, first compound 10 µM): 45.4% | viability, T/C (second compound 0.003 µM, first compound 0.0316 µM): 9.08% | viability, T/C (second compound 0.003 µM, first compound 0.1 µM): 11.7% | viability, T/C (second compound 0.003 µM, first compound 0.316 µM): 12.8% | viability, T/C (second compound 0.003 µM, first compound 1 µM): 5.61% | viability, T/C (second compound 0.003 µM, first compound 3.16 µM): 7.75% | viability, T/C (second compound 0.003 µM, first compound 10 µM): 6.1%
